Experimental findings from ChEMBL document CHEMBL1140220, “Synthetic and crystallographic studies of a new inhibitor series targeting Bacillus anthracis dihydrofolate reductase” (J Med Chem, 2008) are described below.

The target of this assay is T1, Dihydrofolate reductase (Homo sapiens, UniProt P00374).
T1 sequence (P00374 whole entry): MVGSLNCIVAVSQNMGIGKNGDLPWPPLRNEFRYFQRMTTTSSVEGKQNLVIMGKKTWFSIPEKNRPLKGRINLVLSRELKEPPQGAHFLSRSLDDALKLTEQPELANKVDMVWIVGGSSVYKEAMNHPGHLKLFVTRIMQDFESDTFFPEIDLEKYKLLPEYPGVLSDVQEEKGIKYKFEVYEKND

The IC50 is the concentration needed to halve the response being measured. Read a low IC50 as inhibition by little substance.

Compound `CCc1nc(N)nc(N)c1C#CCc1cccc(OC)c1OC` came in with an IC50 of 130 nM.

On to `CCc1nc(N)nc(N)c1C#CCc1ccccc1`, for which the half-maximal inhibitory concentration (IC50) was determined as 360 nM. This IC50 is about 2.8-fold higher than that of the compound before.
